The record followed here is PubChem BioAssay AID192 (DTP/NCI, 2004).

Where “and” joins values, the source holds several entries; their conditions need not be identical. Equal entries are not always repeated. Toxic doses and inconclusive results are not listed.

The subject of the test is BDF1 mice, B16 melanoma ip, median survival T/C. Briefly: NCI In Vivo Anticancer Drug Screen. Data for tumor model B16 Melanoma (intraperitoneal) in B6D2F1 (BDF1) mice. Particulars: endpoint: median survival time, higher = longer survival. Put shortly: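 Read-out: survival or tumor size, given as treated/control ratio. Controls received vehicle only; animals bore transplantable tumors.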

Where [1] appears, read: dose: 25.0 mg/kg/injection, schedule: Q01DX009 (ip), vehicle: saline.
[2] abbreviates: dose: 50.0 mg/kg/injection, schedule: Q01DX009 (ip), vehicle: saline.
[3] abbreviates: dose: 100.0 mg/kg/injection, schedule: Q01DX009 (ip), vehicle: saline with Tween-80.
The mark [4] stands for this setting: dose: 100.0 mg/kg/injection, schedule: Q01DX009 (ip), vehicle: saline.
Setting [5] is: dose: 6.25 mg/kg/injection, schedule: Q01DX009 (ip), vehicle: saline with Tween-80.
[6] abbreviates: dose: 12.5 mg/kg/injection, schedule: Q01DX009 (ip), vehicle: saline with Tween-80.
[7] abbreviates: dose: 25.0 mg/kg/injection, schedule: Q01DX009 (ip), vehicle: saline with Tween-80.
The mark [8] stands for this setting: dose: 50.0 mg/kg/injection, schedule: Q01DX009 (ip), vehicle: saline with Tween-80.
The mark [9] stands for this setting: dose: 200.0 mg/kg/injection, schedule: Q01DX009 (ip), vehicle: saline with Tween-80.
The mark [10] stands for this setting: dose: 25.0 mg/kg/injection, schedule: Q01DX009 (ip), vehicle: Klucel (hydroxypropylcellulose) (HPC).
The mark [11] stands for this setting: dose: 50.0 mg/kg/injection, schedule: Q01DX009 (ip), vehicle: Klucel (hydroxypropylcellulose) (HPC).
Where [12] appears, read: dose: 100.0 mg/kg/injection, schedule: Q01DX009 (ip), vehicle: Klucel (hydroxypropylcellulose) (HPC).
The mark [13] stands for this setting: dose: 200.0 mg/kg/injection, schedule: Q01DX009 (ip), vehicle: Klucel (hydroxypropylcellulose) (HPC).
The mark [14] stands for this setting: dose: 400.0 mg/kg/injection, schedule: Q01DX009 (ip), vehicle: Klucel (hydroxypropylcellulose) (HPC).
[15] abbreviates: dose: 12.5 mg/kg/injection, schedule: Q01DX009 (ip), vehicle: saline.

Take `Cc1cccc(NC(=O)COc2ccc(Cl)cc2)c1C`: the T/C was 98 % of control under setting [1], 100 % of control under setting [2], 98 % of control under setting [3] and 105 % of control under setting [4].
In the case of `Cc1cc(C)[c]([Hg][Cl])c(C)c1`, the T/C runs as follows: (dose: 1.5 mg/kg/injection, schedule: Q01DX009 (ip), vehicle: saline with Tween-80) 110 % of control; (dose: 3.0 mg/kg/injection, schedule: Q01DX009 (ip), vehicle: saline with Tween-80) 98 % of control; (dose: 6.0 mg/kg/injection, schedule: Q01DX009 (ip), vehicle: saline with Tween-80) 99 % of control; under setting [5], 88 % of control.
As to `OCCOCC(F)(F)F`, the T/C by setting is: under setting [5], 94 % of control and 112 % of control; under setting [6], 99 % of control and 104 % of control; under setting [7], 97 % of control and 103 % of control; under setting [8], 92 % of control and 105 % of control; (dose: 75.0 mg/kg/injection, schedule: Q01DX009 (ip), vehicle: saline with Tween-80) 93 % of control; under setting [3], 102 % of control and 103 % of control. Further, the T/C was 88 % of control (dose: 150.0 mg/kg/injection, schedule: Q01DX009 (ip), vehicle: saline with Tween-80); 94 % of control and 105 % of control under setting [9].
For `CCCCNC(=O)Nc1ccccc1Cl`, the T/C is 100 % of control under setting [3]; 98 % of control under setting [9]; 98 % of control (dose: 400.0 mg/kg/injection, schedule: Q01DX009 (ip), vehicle: saline with Tween-80).
In the case of `O=C1C(=O)c2ccccc2C(O)=C1CCCc1ccc(C2CCCCC2)cc1`, the T/C under setting [7] was 104 % of control and the T/C under setting [9] was 88 % of control.
Turning to `CCNNC(=O)[C@@H]1[C@H](c2cc(OC)c(OC)c(OC)c2)c2cc3c(cc2[C@H](O)[C@H]1CO)OCO3`, the T/C is, setting by setting: under setting [8], 94 % of control; under setting [3], 86 % of control.
In the same order, the values of `Cc1cc2[nH]c(=O)[nH]c2cc1C` are 97 % of control and 90 % of control.
`C1CC[N-]CC1.CC(=N\O)/C(C)=N/O.CC(=N\O)/C(C)=N/O.[CH2-]C.[Co+2]`: the T/C was 111 % of control under setting [10] and 102 % of control under setting [11].
As for `COc1cccc(NC(=O)Nc2ccccc2OC)c1`, the T/C by setting is: under setting [12], 86 % of control; under setting [13], 90 % of control; under setting [14], 93 % of control.
Take `[CH3][Sn]([CH3])([CH3])[S]C(=S)N1CCOCC1`: the T/C (dose: 0.75 mg/kg/injection, schedule: Q01DX009 (ip), vehicle: Klucel (hydroxypropylcellulose) (HPC)) was 100 % of control and the T/C (dose: 1.5 mg/kg/injection, schedule: Q01DX009 (ip), vehicle: Klucel (hydroxypropylcellulose) (HPC)) was 95 % of control.
For `CCC[CH2][Pb]([CH2]CCC)([CH2]CCC)[O]C(=O)CCl`, under “dose: 1.56 mg/kg/injection, schedule: Q01DX009 (ip), vehicle: Klucel (hydroxypropylcellulose) (HPC)”, the T/C is 90 % of control.
As to `Cc1c(NCO)c(=O)n(-c2ccccc2)n1C`, the T/C under setting [4] was 102 % of control; the T/C (dose: 200.0 mg/kg/injection, schedule: Q01DX009 (ip), vehicle: saline) is 94 % of control; the T/C (dose: 400.0 mg/kg/injection, schedule: Q01DX009 (ip), vehicle: saline) was 91 % of control.
With `O=C1NC(c2ccc3ccccc3c2)Nc2ccccc21` (centres undefined), the T/C is, setting by setting: under setting [12], 96 % of control; under setting [13], 103 % of control; under setting [14], 90 % of control.
For `CC1(S)CCC2CC1C2(C)C` (centres undefined), the T/C by setting is: (dose: 12.5 mg/kg/injection, schedule: Q01DX009 (ip), vehicle: Klucel (hydroxypropylcellulose) (HPC)) 94 % of control; under setting [10], 94 % of control; under setting [11], 89 % of control.
Take `CCCSc1ccccc1N1CCN(CC(COC)OC)CC1` (centres undefined): the T/C by setting is: under setting [15], 101 % of control; under setting [1], 100 % of control; under setting [2], 96 % of control.
In the case of `CNC(=S)N/N=C/c1ccc([N+](=O)[O-])s1`, the T/C was 90 % of control under setting [8], 92 % of control under setting [3] and 92 % of control under setting [9].
On to `Nc1ccc2ccc(O)cc2c1`, for which the T/C by setting is: (dose: 75.0 mg/kg/injection, schedule: Q04DX003 (ip), vehicle: saline with Tween-80) 105 % of control; (dose: 150.0 mg/kg/injection, schedule: Q04DX003 (ip), vehicle: saline with Tween-80) 95 % of control.
As to `CCCCCCC(O)CCCC` (centres undefined), the T/C is, setting by setting: (dose: 100.0 mg/kg/injection, schedule: Q01DX009 (ip), vehicle: other) 103 % of control; (dose: 200.0 mg/kg/injection, schedule: Q01DX009 (ip), vehicle: other) 90 % of control.
Turning to `CSCCC(NC(=O)OCC1c2ccccc2-c2ccccc21)C(=O)O` (centres undefined), the T/C is, setting by setting: under setting [11], 103 % of control; under setting [12], 98 % of control; under setting [13], 87 % of control.
As to `CC(CN1c2ccccc2Sc2cccnc21)N(C)C` (centres undefined), the T/C runs as follows: (dose: 3.12 mg/kg/injection, schedule: Q01DX009 (ip), vehicle: saline) 97 % of control; (dose: 6.25 mg/kg/injection, schedule: Q01DX009 (ip), vehicle: saline) 107 % of control; under setting [15], 112 % of control; under setting [1], 109 % of control; under setting [2], 100 % of control.
For `O=NN(CCBr)C(=O)Nc1ccccc1`, the T/C was 152 % of control under setting [6]; 202 % of control under setting [7]; 171 % of control (dose: 37.5 mg/kg/injection, schedule: Q01DX009 (ip), vehicle: saline with Tween-80); 177 % of control under setting [8].
Regarding `CC(=O)CC(C)(C)C1CCCCC1`, the T/C runs as follows: (dose: 12.5 mg/kg/injection, schedule: Q01DX009 (ip), vehicle: water) 107 % of control; (dose: 25.0 mg/kg/injection, schedule: Q01DX009 (ip), vehicle: water) 98 % of control; (dose: 50.0 mg/kg/injection, schedule: Q01DX009 (ip), vehicle: water) 95 % of control; (dose: 100.0 mg/kg/injection, schedule: Q01DX009 (ip), vehicle: water) 102 % of control; (dose: 200.0 mg/kg/injection, schedule: Q01DX009 (ip), vehicle: water) 88 % of control.
